Experimental data published in PMC6600273, “Design, Synthesis and Anti-Platelet Aggregation Activity Study of Ginkgolide-1,2,3-triazole Derivatives” (Molecules, 2019).

Tested on: PAF-induced platelet aggregation
Test: In vitro antiplatelet aggregation activity assay (method of Born), PAF-induced platelet aggregation in platelet-rich plasma
Type: cell-based, New Zealand rabbits
Conditions: for IC50: rabbit PRP, aggregation induced by PAF (10 nM); for antiplatelet aggregation activity, inhibition ratio in primary screening (result in words): inhibition ratio at 50 nM, Figures 3 and 4
Description: The in vitro antiplatelet aggregation activity of the newly synthesized 10-substituted 1,2,3-triazole-ginkgolide derivatives was tested by the method of Born. Blood samples (2 mL) from male New Zealand rabbits (2–2.5 kg body weight) were drawn into vacutainer tubes containing 200 μL of 3.2% sodium citrate. Platelet-rich plasma (PRP) was prepared by centrifuging the blood at 250× g for 10 min at 4 °C. The PRP was diluted with platelet-poor plasma obtained by further centrifuging at 3000× g for 10 min. The remaining blood was further centrifuged at 1600× g for 5 min to obtain platelet-poor plasma (PPP) as control group. Platelet aggregation was induced by PAF (10 nM) after incubating platelets with different concentrations of samples, and the maximum rate of platelet aggregation (RPA%) within 5 min was measured with a Helena Platelet aggregometer instrument. The inhibition ratio was calculated according to the following formula:Inhibition ratio (%) = (1−(RPA% of test group) / (RPA% of control group)) × 100%
In primary screening, the activities were expressed directly as inhibition ratio at 50 nM concentration. […] The values shown in the tables were calculated by linear regression from a single experimental curve with no less than four data points, each point being the mean of the percentage inhibition at a given concentration obtained from three independent experiments.

[1] = Oryctolagus cuniculus, Platelet

Compound	IC50 [1] [nM]	antiplatelet aggregation activity, inhibition ratio in primary screening (result in words)	fold increase in antiplatelet aggregation activity in comparison with natural ginkgolide B (1) (ratio of IC50 values vs ginkgolide B) [fold]	IC50 [nM]
CC1C(=O)OC2C(O)C34C5CC(C(C)(C)C)C36C(OC(=O)C6OCc3cn(-c6ccccc6C#N)nn3)OC4(C(=O)O5)C12O (stereo not shown) [Compound 5p, 10-O-(1-(2-Cyanophenyl)-1H-1,2,3-triazole) ginkgolide B]	10.2 ± 2.03	best results		
C[C@@H]1C(=O)O[C@H]2C[C@@]34[C@H]5C[C@@H](C(C)(C)C)[C@]36[C@@H](OC(=O)[C@@H]6O)O[C@@]4(C(=O)O5)[C@]21O [1′, ginkgolide A, reference compound]	580 ± 50.3			
Cc1cccc(-n2cc(COC3C(=O)OC4OC56C(=O)OC7CC(C(C)(C)C)C43C75C(O)C3OC(=O)C(C)C36O)nn2)c1 (stereo not shown) [Compound 5q, 10-O-(1-(3-Methylphenyl)-1H-1,2,3-triazole) ginkgolide B]	44.3 ± 4.42			
CC1C(=O)OC2C(O)C34C5CC(C(C)(C)C)C36C(OC(=O)C6OCc3cn(Cc6ccccc6)nn3)OC4(C(=O)O5)C12O (stereo not shown) [Compound 5ff, 10-O-(1-Benzyl-1H-1,2,3-triazole) ginkgolide B]	5.31 ± 1.84	best results	~20	
CC1C(=O)OC2C(O)C34C5CC(C(C)(C)C)C36C(OC(=O)C6OCc3cn(-c6ccccc6)nn3)OC4(C(=O)O5)C12O (stereo not shown) [Compound 5a, 10-O-(1-Phenyl-1H-1,2,3-triazole) ginkgolide B]	7.74 ± 1.89	best results		
ginkgolide C [1″, reference compound]				7540 ± 662
Cc1ccccc1-n1cc(COC2C(=O)OC3OC45C(=O)OC6CC(C(C)(C)C)C32C64C(O)C2OC(=O)C(C)C25O)nn1 (stereo not shown) [Compound 5n, 10-O-(1-(2-Methylphenyl)-1H-1,2,3-triazole) ginkgolide B]	20.6 ± 2.84	best results		
ginkgolide B [Compound 1, reference compound]				130 ± 20
